These results are taken from ChEMBL document CHEMBL3507680, “University of Dundee, Gates Library screen for HepG2 cell viability”.

The series in a line: Human HepG2 cell viability assay in 384 well format. The settings on record: HepG2 cells, read-out: Inhibition. The arrangement: dose 125 nL, time 70.5 hour; cytotoxicity at 70.5 h: concentration not given beside the values. Format: toxicity, cell-based.

For `CCNC(=O)[C@@H]1C[C@H](N)CN1c1cc(C(F)(F)F)nc(N2CCCC2)n1`, the cytotoxicity at 70.5 h amounted to 3.41%.
Take `COc1ccc2c(c1)OCC(Cc1ccc(N)cn1)C2` (centres undefined): the cytotoxicity at 70.5 h was found to be 2.07%.
In the case of `COc1nc2c(cc1C(=O)NCCCc1csc(N)n1)CCC2`, the cytotoxicity at 70.5 h was -6.85%.
In the case of `CC(=O)N[C@@H]1CN(Cc2ccccc2-n2cccn2)C[C@H]1C(C)C` it was -4.08%; in that of `Cc1cc(C(=O)N2C[C@H]3CC[C@@H]2CN(C(=O)c2ccncc2)C3)cs1`, -1.99%.
In the case of `Cc1nccn1CCN(C)C(=O)c1cn(CC2CCCCC2)nn1` it was -25.4%; in that of `CC(C)N1CCCC(C(=O)N2CCc3c(nc(CC4CC4)[nH]c3=O)C2)C1` (centres undefined), 3.48%.
For the molecule `CN(C)CCN1CC(C(=O)N2CCC(c3nccn3C)CC2)CC1=O` (centres undefined), the cytotoxicity at 70.5 h is 6.94%.
The result for `c1ccc2c(c1)CC(Cc1cc(N3CCCC3)cnn1)CCO2` (centres undefined) reads 2.31%; that for `Cc1ccc(C(=O)N2CC[C@H](N3CCOCC3)[C@H](CCCO)C2)cc1O`, -8.22%; that for `Cc1n[nH]c(C)c1Sc1ccccc1NC(=O)CN1CCCC1`, -3.41%.
Turning to `CC1(c2ccccc2)CCC(=O)N(CCCN2CCOCC2)C1` (centres undefined), the cytotoxicity at 70.5 h was -8.26%.
In the case of `CN1CC2(CCN(Cc3ncc[nH]3)CC2)CC1=O` it was -4.6%; in that of `NC(=O)CCn1cc(CNCc2csc(N)n2)c2ccccc21`, -2.33%.
On to `COCc1cn(C2CCN(Cc3ccc(Cl)s3)CC2)nn1`, for which the cytotoxicity at 70.5 h was -12.4%.
Regarding `CC(C)c1nc(C(=O)N2C[C@H](C(C)C)[C@@H](N)C2)cs1`, the cytotoxicity at 70.5 h is -0.955%.
With `CC(C)(C)n1ccc(C(=O)N2CCCC(c3ccc(C(=O)O)cc3)C2)c1` (centres undefined), the cytotoxicity at 70.5 h was -13.3%.
The result for `CC(=O)CCCC(=O)N(Cc1ccsc1)CC(C)C` reads -5.67%; that for `O=C(NCCCc1ccccn1)c1cn(CCN2CCNCC2)nn1`, -9.59%; that for `CCN(C)S(=O)(=O)N[C@H]1CN(c2ccc(F)cn2)C[C@@H]1C(C)C`, -1.25%.
As for `Cc1cc(C(=O)N2CCc3[nH]cnc3C2C(=O)O)c(-c2ccccc2)o1` (centres undefined), the cytotoxicity at 70.5 h is -3.87%.
As for `Cc1ccccc1SCC(=O)N[C@H]1CC[C@H](n2cnnc2)CC1`, the cytotoxicity at 70.5 h is -5.74%.
As for `CCN1CC2(CCC1=O)CCN(CCc1nccn1C)CC2`, the cytotoxicity at 70.5 h was -6.75%.
Consider `CC[C@H](C)[C@@H](CO)NC(C)Cc1ccc(Cl)cc1` (some centres undefined), for which the cytotoxicity at 70.5 h is -2.7%.
With `c1cc(CN2CCC(n3cc(CN4CCCC4)nn3)CC2)cs1`, the cytotoxicity at 70.5 h is -5.26%.
As for `Cc1cc(C)n2ncc(CN3CCC(n4cc(CCO)nn4)CC3)c2n1`, the cytotoxicity at 70.5 h was -1.82%.
Consider `CCCN(Cc1nccn1C)C(=O)c1cc(C(C)C)on1`, for which the cytotoxicity at 70.5 h came out at 3.45%.
For the molecule `CCc1cnc(NCCS(=O)(=O)N(C)C)nc1`, the cytotoxicity at 70.5 h worked out at 20.6%.
As for `Cc1noc(CN2C[C@H]3CC[C@@H]2CN(C2Cc4ccccc4C2)C3)n1`, the cytotoxicity at 70.5 h was 4.75%.
The result for `CC(C)CN1CCc2[nH]cnc2C12CCN(C(=O)c1ccccn1)CC2` reads -3.63%.
In the case of `COc1ccccc1OC1CCN(C(=O)c2cnc(C)s2)CC1`, the cytotoxicity at 70.5 h was -4.88%.
Turning to `CC(C)N(Cc1nccn1C)C(=O)c1cnc(O)cn1`, the cytotoxicity at 70.5 h was -3.41%.
In the case of `c1ccc(C2CCCN2C2CCSCC2)nc1` (centres undefined), the cytotoxicity at 70.5 h was 0.0849%.
Regarding `O=c1[nH]cnc2c1CCN(S(=O)(=O)c1ccc(OC(F)(F)F)cc1)C2`, the cytotoxicity at 70.5 h was -9.4%.
Turning to `CC(C)CN1CCCn2nc(CNC(=O)OCc3ccccc3)cc2C1`, the cytotoxicity at 70.5 h is -5.5%.
On to `COc1ccc(N2CCN(C(=O)[C@H]3[C@@H]4CNC[C@@H]43)CC2(C)C)cc1`, for which the cytotoxicity at 70.5 h turned out to be 18.4%.
Consider `CC(C)(C)c1ccc(C(=O)C2CCCN(C(=O)CNS(C)(=O)=O)C2)cc1` (centres undefined), for which the cytotoxicity at 70.5 h turned out to be 23.1%.
With `CCc1cc(N(C)Cc2ncc[nH]2)nc(N2CCOCC2)n1`, the cytotoxicity at 70.5 h was -15.9%.
Take `COc1ccccc1C1CCN(c2ccc3cc[nH]c3n2)CC1`: the cytotoxicity at 70.5 h is -7.33%.
`Cc1ccccc1C(C(=O)O)N(C)CC1CCOCC1` (centres undefined): the cytotoxicity at 70.5 h was -2.17%.
As for `Cc1csc2c(N3CCC(NCCc4ccnn4C)CC3)ncnc12`, the cytotoxicity at 70.5 h turned out to be 6.94%.
On to `O=C(c1ccc2cccnc2n1)N(Cc1ccsc1)CC1CCCO1` (centres undefined), for which the cytotoxicity at 70.5 h was -12.4%.
`CCN1CCN(C(=O)c2cnc(Cc3c(Cl)cccc3Cl)nc2O)CC1`: the cytotoxicity at 70.5 h was -4.18%.
For `CC(C)[C@H]1CN(C2Cc3ccccc3C2)C[C@@H]1NS(=O)(=O)N(C)C`, the cytotoxicity at 70.5 h amounted to 0.396%.
Consider `COCCN1CCC(CN(C)c2nc3c(s2)c(C)nn3C)CC1`, for which the cytotoxicity at 70.5 h is 13.5%.
In the case of `Cc1ccc(C)c(C(NC2CCCC2)c2cccnc2)c1` (centres undefined), the cytotoxicity at 70.5 h is 7.4%.
With `COCCOCC(=O)N(Cc1cccc(C)c1)C(C)C`, the cytotoxicity at 70.5 h came to 3.91%.
As for `Cc1ncsc1CCC(=O)NCc1csc(N(C)C)n1`, the cytotoxicity at 70.5 h was -1.1%.
`CCn1cncc1CNC(=O)c1ccc(C2CCCN2C(=O)COC)s1` (centres undefined): the cytotoxicity at 70.5 h is -12%.
Consider `CSCc1noc(CNC2CCCC(C)(C)C2)n1` (centres undefined), for which the cytotoxicity at 70.5 h was -5.82%.
Take `CCSc1ncc(CN2CCC(O)(CN3CCOCC3)C(C)(C)C2)cn1` (centres undefined): the cytotoxicity at 70.5 h worked out at 38.5%.
Consider `Cc1nc2ccccc2n1Cc1cc(C(=O)N(C)C2CCOCC2)no1`, for which the cytotoxicity at 70.5 h came to 12.4%.
On to `CC(C)CN1CCCn2nc(CNC(=O)NC(C)(C)C)cc2C1`, for which the cytotoxicity at 70.5 h is -6.75%.
For the molecule `COCCN(Cc1nccs1)c1nc2c(s1)c(C)nn2C`, the cytotoxicity at 70.5 h is -10.8%.
Consider `Nc1cc(N2CCCC(COc3ccc(F)cc3)C2)ncn1` (centres undefined), for which the cytotoxicity at 70.5 h was -12.7%.
In the case of `CN(Cc1nccn1C)C1CCCN(CCCc2ccccc2)C1` (centres undefined) it was -6.62%; in that of `c1ccc(C(CC2CN(Cc3ncc[nH]3)CCO2)c2ccccc2)cc1` (centres undefined), 0.214%; in that of `Cc1cc(C)n(CCC2CC(=O)Nc3cc(O)c(C)cc32)n1` (centres undefined), -5.9%.
As to `CCc1cc(N2CCC3(CCCNC3=O)C2)nc(N2CCOCC2)n1` (centres undefined), the cytotoxicity at 70.5 h is -4.73%.
On to `Cc1nc[nH]c1CN1CCCC(CNC(=O)c2ccc(N)nc2)C1` (centres undefined), for which the cytotoxicity at 70.5 h was -6.47%.
For the molecule `CCNC(=O)N1C[C@@H](NC(C)=O)[C@H](c2ccc(C)o2)C1`, the cytotoxicity at 70.5 h is -2.82%.
Regarding `Cc1cccc(OCC2CCCN(C(=O)Cn3ccccc3=O)C2)c1` (centres undefined), the cytotoxicity at 70.5 h was found to be 5.85%.
As for `CCCc1cc(C(=O)N2C[C@H](O)[C@@H](N3CCCC3)C2)ccn1`, the cytotoxicity at 70.5 h is 16.4%.
As to `CCSC(C)C(=O)N1CCC(c2nn(C)c(=O)n2-c2ccccc2)CC1` (centres undefined), the cytotoxicity at 70.5 h was -7.97%.
In the case of `CCC(Cn1ccnc1)n1cnc2c(C)csc2c1=O` (centres undefined) it was -14.3%.
Consider `CCn1cnnc1C1CCN(C(=O)c2cccc(OC)c2OC)CC1`, for which the cytotoxicity at 70.5 h was -7.68%.
Turning to `CCn1cnnc1C1CCN(C(=O)c2cc(OC)ccc2OC)CC1`, the cytotoxicity at 70.5 h was 1%.
For `CC(C)c1cc(NC(=O)c2cccnc2)[nH]n1`, the cytotoxicity at 70.5 h was -10.3%.
On to `Cc1cnn(CCNCC(=O)NC(C)c2ccc3c(c2)OCCO3)c1` (centres undefined), for which the cytotoxicity at 70.5 h was -3.11%.
The result for `Cc1nccn1C1CCCN(C(=O)c2ccc3nncn3c2)C1` (centres undefined) reads -4.02%.
Consider `CCn1cnnc1C1CCN(C(=O)c2ccoc2C)CC1`, for which the cytotoxicity at 70.5 h came to 11.9%.
Consider `Cc1nc(CN(C)C2CCCN(c3cccnn3)C2)nc2ccccc12` (centres undefined), for which the cytotoxicity at 70.5 h turned out to be 1.21%.
In the case of `O=C1NCCN1C1CCN(Cc2nc(-c3ccccc3)no2)CC1` it was 13.9%; in that of `Cc1nc(CN(C)C2CCCN(c3ccccc3)C2)no1` (centres undefined), -3.56%.
For `CCCc1noc(CNc2ccc(C(=O)N3CCCC3)cc2C)n1`, the cytotoxicity at 70.5 h is -0.0635%.
Regarding `Cc1cc(C)n(CC2CN(CC3CCCC3)CCO2)n1` (centres undefined), the cytotoxicity at 70.5 h was -3.55%.
As to `Cc1cnn(C2CN(Cc3nc(-c4cccnc4)no3)C2)c1`, the cytotoxicity at 70.5 h worked out at 1.92%.
Turning to `CC(=O)N(C)c1nc(CN2CCCC2Cn2nc(C)cc2C)cs1` (centres undefined), the cytotoxicity at 70.5 h was -3.11%.
For `CC(=O)Nc1nc(CN2CCCCC2Cn2cncn2)cs1` (centres undefined), the cytotoxicity at 70.5 h amounted to 0.302%.
On to `Cc1cnn(C2CN(Cc3nc(-c4ccccc4C)no3)C2)c1`, for which the cytotoxicity at 70.5 h was 11%.
Regarding `COCCOc1ccc(Cl)c(C(=O)N2CCN(CCO)CC2)n1`, the cytotoxicity at 70.5 h was -2.95%.
The result for `OCCN1CCN(Cc2coc(-c3cccc(F)c3)n2)CC1` reads -7.98%; that for `CCn1cc(CN2CCCN(C(=O)CCc3cnn(C)c3)CC2)cn1`, -11.5%; that for `O=C(c1ccoc1)N1CCC(Nc2cccnn2)CC1`, -8.84%.
Consider `CC(C)c1nn(C)c(N(C)C)c1CNCC(O)c1ccccc1` (centres undefined), for which the cytotoxicity at 70.5 h is -10.1%.
In the case of `Cn1ncc2c(=O)[nH]c(CN(Cc3ccco3)C3CC3)nc21` it was -16.2%; in that of `CN(Cc1nc2c(cnn2C)c(=O)[nH]1)Cc1ccco1`, 7.12%; in that of `Cc1nc2cc(O)nn2c(C)c1CCC(=O)NCCc1ccccc1`, 10.3%.
In the case of `Cc1nc2cc(O)nn2c(C)c1CCC(=O)NCCCC(C)C`, the cytotoxicity at 70.5 h was -3.79%.
Turning to `CC(C)Cc1cc(NC(=O)c2n[nH]c3ccccc23)n(C)n1`, the cytotoxicity at 70.5 h was -5.98%.
`Cc1cnn(C2CCCN(C(=O)c3ccc(NC4CC4)nc3)C2)c1` (centres undefined): the cytotoxicity at 70.5 h was -13.3%.
In the case of `COC(=O)c1cccn1C1CCN(C(=O)c2ccc(C)cc2O)CC1`, the cytotoxicity at 70.5 h is -8.93%.
On to `CC(C)Cc1cc(NC(=O)c2cc(Cl)c[nH]2)n(C)n1`, for which the cytotoxicity at 70.5 h was -8.43%.
For the molecule `Cc1nc(NC(=O)CCc2c(C)nc3cc(O)nn3c2C)sc1C`, the cytotoxicity at 70.5 h was -16.5%.
For the molecule `Cc1cnn(C2CCCN(C(=O)c3ccc(N4CCCC4)nc3)C2)c1` (centres undefined), the cytotoxicity at 70.5 h was -7.94%.
With `CCOc1ccc(Cl)c(C(=O)N2CCN(CC(C)(C)O)CC2)n1`, the cytotoxicity at 70.5 h is -12.6%.
The result for `Cc1ccc(F)c(NS(=O)(=O)c2cc(C(=O)O)oc2C)c1` reads -10%; that for `CN(C(=O)C1CCCC1)C(c1cccc(F)c1)c1ccccn1` (centres undefined), 14.2%.
In the case of `CC(C)c1nc(CN2CCCN(c3nccs3)CC2)no1` it was 6.41%.
